One assay has as its target T1, human PTHR1 (Homo sapiens, UniProt Q03431).
T1 construct: expressed in transfected cells
T1 sequence (Q03431 27-593): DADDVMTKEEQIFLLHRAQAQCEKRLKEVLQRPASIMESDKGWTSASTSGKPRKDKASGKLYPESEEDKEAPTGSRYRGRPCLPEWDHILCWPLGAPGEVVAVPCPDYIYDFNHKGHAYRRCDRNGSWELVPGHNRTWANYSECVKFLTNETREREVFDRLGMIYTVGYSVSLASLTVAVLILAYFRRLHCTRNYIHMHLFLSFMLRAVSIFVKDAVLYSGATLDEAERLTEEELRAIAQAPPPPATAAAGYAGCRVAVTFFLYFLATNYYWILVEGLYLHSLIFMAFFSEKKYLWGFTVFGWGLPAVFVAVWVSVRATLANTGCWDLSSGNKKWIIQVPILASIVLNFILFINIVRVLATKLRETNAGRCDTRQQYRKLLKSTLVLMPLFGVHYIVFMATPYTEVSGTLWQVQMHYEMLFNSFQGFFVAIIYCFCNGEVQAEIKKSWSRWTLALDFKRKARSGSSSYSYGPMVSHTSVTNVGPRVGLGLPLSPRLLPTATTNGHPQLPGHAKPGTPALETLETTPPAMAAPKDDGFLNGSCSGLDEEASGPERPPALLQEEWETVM
Put plainly: GloSensor cAMP signaling assay in GP‐2.3 cells. Format: cell-based. How it is done: GP‐2.3 cells, an HEK‐293 cell‐ (ATCC CRL‐1573) derived cell line that stably expresses the luciferase‐based pGloSensor‐22F (GloSensor) cAMP reporter plasmid (Promega Corp., […], USA) along with the human PTHR1, were cultured in DMEM (Thermo Fisher Scientific, Waltham, MA, USA) supplemented with FBS (10%). Cells were seeded into white 96‐well plates for GloSensor cAMP assays, and used for assay 2 to 3 days after the monolayer became confluent.16 UGS‐56 cells were derived from the UMR106 rat osteoblastic cell line by stably transfecting the cells to express the GloSensor‐cAMP reporter. B64 cells are a derivative of the porcine kidney cell line, LLC‐PK1 that stably expresses the human PTHR1. COS‐7 cells (ATCC CRL‐1661) were seeded into 10‐cm dishes and transiently transfected to express the human PTHR1 with or without a high‐affinity, negative‐dominant Gαs subunit; 2 days after transfection, the cells were harvested for membrane preparations.13 All transfections were performed using the Fugene HD reagent (Promega Corp.).
Changes in cAMP levels were assessed in intact GP‐2.3 or UGS‐56 cells via the (GloSensor) cAMP reporter. The intact cells in white 96‐well plates were preloaded with luciferin in CO2‐independent culture media (Thermo Fisher) for 20 min at room temperature, then treated with a test ligand diluted in the same media and placed into a Envision plate reader (PerkinElmer, Waltham, MA, USA) for an additional 30 min, during which time cAMP‐dependent luminescence was measured at 2‐min intervals (ligand‐on phase). […] For washout responses, the cells were treated as above, and after the ligand‐on phase, the plate was removed from the plate reader, the cells were rinsed with media, then fresh media containing only luciferin was added and luminescence was measured for an additional 90 min (washout phase). EC50 values were determined using the 4‐parameter sigmoidal dose–response equation in Prism 8.0 (GraphPad Software, Inc., La Jolla, CA, USA).
The cells were then removed from the plate reader, rinsed twice with media to remove unbound ligand, and then fresh media containing luciferin but lacking ligand was added and luminescence was assessed for additional 90 min (Ligand wash‐out phase). Data are means (± SEM) of four experiments, each performed in triplicate. Figure S2. […] Panels A‐C represent three separate experiments. […] Figure S3. […] Serum and urine samples obtained from the TPTX and sham control rats of the two‐week daily‐administration experiment shown in Figure 4 were analyzed by ELISA for the indicated markers. A) serum 1,25(OH)2Vitamin‐D3. B) urinary deoxypyridinoline (DpD)/Cre. C) serum FGF23. […] Serum and urine samples obtained from the TPTX and sham control rats of the two‐week daily‐administration experiment shown in Figure 4 were analyzed for total inorganic phosphorus (Pi). […] Figure S5. […] B) The same peptides were assessed at a concentration of 3 nM for the capacity to stimulate cAMP formation in HKRK‐B64 cells (LLC‐PK1 cells stably expressing the hPTHR1, cAMP measured by RIA). […] Data in A and B are means (±SEM) of three experiments, each performed in triplicate or quadruplicate. […] D) The same analogs as in C were assessed at a 3.0 nM concentration for the capacity to stimulate cAMP formation in HKRK‐B64 cells. Data are means (±SEM) of three experiments, each performed in duplicate. […] Data are means (±SEM) of duplicate determinations of a single experiment representative of three others. Click here for additional data file.

Assay [1] has as its target T2, human PTHR1 (RG conformation) (Homo sapiens, UniProt Q03431).
T2 construct: expressed in transfected cells; host or cells: COS-7 cells (transient co-transfection; membranes)
T2 sequence (Q03431 27-593): T1 sequence (Q03431 27-593)
Briefly: Competition binding to the RG conformation of PTHR1.

Where no end group is shown, it is not given here.

“AVAEIQLMHQRAKWIQDLRRRFFLHHLIAEIHTAEI [M‐PTH(1‐14)/PTHrP(15‐36), [Ala^1,3,12,Gln^10,Arg^11,Trp^14]‐PTH(1‐14)/PTHrP(15–36)]”: on human PTHR1, the Emax (usually the maximal effect, on the per cent scale that the assay sets) came out at 105 ± 4%. In addition, the concentration for half-maximal inhibition (IC50) (as a rule, the concentration that gives 50% inhibition) in assay [1] worked out at 0.67 ± 0.05 nM.

The record behind these values is paper PMC7340446, “Optimization of PTH/PTHrP Hybrid Peptides to Derive a Long‐Acting PTH Analog (LA‐PTH)” (JBMR Plus, 2020).
